Assay results taken from article PMC5785531, “Pharmacokinetic parameters explain the therapeutic activity of antimicrobial agents in a silkworm infection model” (Scientific Reports, 2018).
In brackets after ≈: the same amount, converted by molar mass. Where two headings read alike, the source gives them in different places.

Tests used:
[1] = system: Streptococcus agalactiae JCM5671; experiment: MIC by broth microdilution assay; assay type: cell-based; details: MHB with 2.5% lysed horse blood, 24 h, median of three experiments
Procedure: (§1) Antimicrobial activity was assessed by determining the MIC by broth dilution assay according to our previous reports[21],[35],[36] as per the Clinical and Laboratory Standards Institute[37]. Briefly, serial dilutions of compound 5, compound 7, and positive controls were prepared in cation-adjusted Mueller-Hinton Broth (MHB, Difco, Franklin Lakes, NJ, USA), 100 µl of which was dispensed into each well of a round-bottomed 96-well plate. The final concentrations in the well ranged from 128 µg/ml to 0.0625 µg/ml. Bacteria were grown at 37 °C overnight on either Luria Bertani (tryptone 10 g/l, yeast extract 5 g/l, NaCl 10 g/l) or Tryptic Soy Broth (TSB, Difco) agar plates or sheep blood agar plates (Eiken Chemical Co. Ltd., Tokyo, Japan). Bacterial inoculum was prepared by direct suspension of the colonies in 0.9% saline, and adjusted to obtain a turbidity equivalent to a 0.5 McFarland standard using a spectrophotometer UV-1280 (Shimadzu Corp., Kyoto, Japan). The suspension was then diluted 1:20 in cation-adjusted MHB (Difco), and 10 µl of it was inoculated into each well of previously prepared 96-well plates containing compounds to […] […] Vancomycin (Wako Pure Chemicals) or norfloxacin (Sigma Aldrich, St Louis, MO, USA) were used as positive controls. Each plate contained a growth control well and a vehicle control well. The MIC was determined as the minimum concentration that inhibited the growth of the bacteria.

[2] = system: Streptococcus pyogenes SSI-9; experiment: MIC by broth microdilution assay; assay type: cell-based; details: SSI9, MHB with 2.5% lysed horse blood, 24 h, median of three experiments
Procedure: as §1

[3] = system: Streptococcus pneumoniae (clinical isolate); experiment: MIC by broth microdilution assay; assay type: cell-based; details: MHB with 2.5% lysed horse blood, 24 h, median of three experiments
Procedure: as §1

[4] = system: Staphylococcus simulans; experiment: MIC by broth microdilution assay; assay type: cell-based; details: median of three experiments
Procedure: (§2) Antimicrobial activity was assessed by determining the MIC by broth dilution assay according to our previous reports[21],[35],[36] as per the Clinical and Laboratory Standards Institute[37]. Briefly, serial dilutions of compound 5, compound 7, and positive controls were prepared in cation-adjusted Mueller-Hinton Broth (MHB, Difco, Franklin Lakes, NJ, USA), 100 µl of which was dispensed into each well of a round-bottomed 96-well plate. The final concentrations in the well ranged from 128 µg/ml to 0.0625 µg/ml. Bacteria were grown at 37 °C overnight on either Luria Bertani (tryptone 10 g/l, yeast extract 5 g/l, NaCl 10 g/l) or Tryptic Soy Broth (TSB, Difco) agar plates or sheep blood agar plates (Eiken Chemical Co. Ltd., Tokyo, Japan). Bacterial inoculum was prepared by direct suspension of the colonies in 0.9% saline, and adjusted to obtain a turbidity equivalent to a 0.5 McFarland standard using a spectrophotometer UV-1280 (Shimadzu Corp., Kyoto, Japan). The suspension was then diluted 1:20 in cation-adjusted MHB (Difco), and 10 µl of it was inoculated into each well of previously prepared 96-well plates containing compounds to obtain approximately 5 × 10^4 colony forming units/well and incubated at 37 °C for 20 h. […] Vancomycin (Wako Pure Chemicals) or norfloxacin (Sigma Aldrich, St Louis, MO, USA) were used as positive controls. Each plate contained a growth control well and a vehicle control well. The MIC was determined as the minimum concentration that inhibited the growth of the bacteria.

[5] = system: Staphylococcus haemolyticus JCM2416; experiment: MIC by broth microdilution assay; assay type: cell-based; details: median of three experiments
Procedure: as §2

[6] = system: Streptococcus sanguinis JCM5708; experiment: MIC by broth microdilution assay; assay type: cell-based; details: MHB with 2.5% lysed horse blood, 24 h, median of three experiments
Procedure: as §2

[7] = system: Enterococcus faecalis EF1; experiment: MIC by broth microdilution assay; assay type: cell-based; details: median of three experiments
Procedure: as §2

[8] = system: S. aureus MSSA1; experiment: Silkworm systemic infection model, therapeutic activity (ED50); assay type: in vivo, Staphylococcus aureus
Description: We synthesized 50 compounds (Fig. 2, Supplementary Table 1) using the Steglich esterification scheme[31] in the presence of a […], 1-ethyl-3-(3-dimethylaminopropyl)-carbodiimide hydrochloride (Fig. 1b). Antimicrobial activities of the compounds were examined by determining the MIC against S. aureus MRSA4 in vitro; therapeutic activities were examined using a systemic infection model of silkworms infected with S. aureus MSSA1.
A total of 108,373 compounds from the chemical library of the Drug Discovery Initiative at the University of Tokyo were screened for antibacterial activity against S. aureus strain MRSA4 as previously reported. Those compounds that inhibited the growth of MRSA4 at 100 µM were further evaluated for their therapeutic effects in silkworms infected with S. aureus strain MSSA1 according to previously reported studies[17],[21].

[9] = Metabolism in pooled human liver S9 fractions; assay type: in vitro ADME; details: 40 µg/ml compound; pooled human liver S9, NADPH, 37 °C; 10, 20, 30 min; HPLC
Procedure: Metabolism of the compounds was determined according to Yang et al.[38] with slight modifications. Briefly, reaction mixture containing 5 mM MgCl2, 2 mM NADPH, 20 µg/ml pooled human liver S9 fractions (Sekisui Xenotech, KS, USA) in 0.05 M Tris-HCl buffer (pH 7.4) was pre-incubated at 37 °C for 5 min. The reaction was initiated by the addition of 40 µg/ml compound 5 or compound 7 and incubation was continued. Aliquots (100 µl) were collected at 10, 20, and 30 min, and an equal volume of acetonitrile was added. The resulting mixture was analyzed by HPLC equipped with a Waters 2998 Photodiode Array Detector and a Waters 2707 Autosampler using a Senshu-Pak Pegasil ODS-SP-100 column (4.6 Ø × 250 mm) with gradient elution of 50–100% acetonitrile for 30 min at the flow rate of 1 ml/min. Statistical analysis was performed using Prism 5 for Mac OS X, version 5.0 f (GraphPad Software).

[10] = Staphylococcus aureus, silkworms infected with S. aureus MSSA1 (Fig. 2), read-out: ED50

SMILES: O=C(OCc1cc(Cl)cc(Cl)c1)c1ccc([N+](=O)[O-])s1 [compound 5]
- MIC [1]: > 128 µg/mL
- MIC [2]: 8 µg/mL (≈ 24.1 µM)
- MIC [3]: 1 µg/mL (≈ 3.01 µM)
- MIC [4]: 0.25 µg/mL (≈ 0.753 µM)
- MIC [5]: 0.25 µg/mL (≈ 0.753 µM)
- MIC [6]: > 128 µg/mL
- MIC [7]: > 128 µg/mL
- ED50 ([8]; S. aureus-infected silkworms): 22 µg/g
- ED50 [8, 10]: 22 mg/kg
- metabolism by human liver S9 fractions [9]: slowly metabolized compared with compound 7

SMILES: O=C(OCc1ccccc1)c1ccc([N+](=O)[O-])s1 [compound 7]
- MIC [1]: > 128 µg/mL
- MIC [2]: 16 µg/mL (≈ 60.8 µM)
- MIC [3]: 1 µg/mL (≈ 3.8 µM)
- MIC [4]: 0.5 µg/mL (≈ 1.9 µM)
- MIC [5]: 0.25 µg/mL (≈ 0.95 µM)
- MIC [6]: > 128 µg/mL
- MIC [7]: > 128 µg/mL
- ED50 ([8]; S. aureus-infected silkworms): > 170 µg/g
- ED50 [8, 10]: > 170 mg/kg
